pEC50: −log10 of the molar value.
Target: recombinant human prostanoid EP2 receptor (Homo sapiens (Human), UniProt P43116)
Assay: Human prostanoid EP2 receptor cellular functional assay (cAMP, HTRF)
Assay type: cell-based
Conditions: for pEC50: CHO cells expressing recombinant human EP2, cAMP by HTRF, 30 min, 37° C., read-out: In vitro functional assay EP2 (h) EC50; for In vitro functional assay EP2 (h) % response: percent of control specific agonist response (10 μM PGE2)
Protocol: Test 1.2: Human Prostanoid EP2 Receptor Cellular Functional Assay
Human CHO cells expressing the recombinant human prostanoid EP2 receptor were suspended in assay medium (HBSS buffer (Invitrogen) containing 20 mM HEPES (pH7.4) and 500 μM isobutyl-methylxanthine IBMX) and plated out to yield approximately 1×10^4 cells/well in a 96-well. Following this, cells were incubated with agonists for 30 min in the presence of the test compounds. For stimulated control measurements, separate assay wells contain 10 μM PGE2 (control specific agonist). All incubations were carried out at 37° C. in a 5% CO2 atmosphere. Following incubation, the amount of cAMP in each well was determined by HTRF method. The cells are lysed and the fluorescence acceptor (D2-labeled cAMP) and fluorescence donor (anti-cAMP antibody labeled with europium cryptate) are added. After 60 min at room temperature, the fluorescence transfer is measured at λ ex=337 nm and λ em=620 and 665 nm using a microplate reader (Rubystar, BMG).
The cAMP concentration is determined by dividing the signal measured at 665 nm by that measured at 620 nm (ratio).
The standard reference agonist PGE2 was tested at several concentrations to generate a concentration-response curve to determined EC50.
Analysis and Expression of Results
The results are expressed as a percent of control specific agonist response ((measured specific response/control specific agonist response)×100) obtained in the presence of the test compounds. The EC50 values (concentration producing a half-maximal specific response) were determined by non-linear regression analysis of the concentration-response curves generated with mean replicate values using Hill equation curve fitting (Y=D+[(A−D)/(1+(C/C50)nH)], where Y=specific response, D=minimum specific response, A=maximum specific response, C=compound concentration, and C50=EC50 and nH=slope factor). This analysis was performed using a software developed at Cerep (Hill software) and validated by comparison with data generated by the commercial software SigmaPlot® 4.0 for Windows® (© 1997 by SPSS Inc.).

Chain of recombinant human prostanoid EP2 receptor (P43116 whole entry): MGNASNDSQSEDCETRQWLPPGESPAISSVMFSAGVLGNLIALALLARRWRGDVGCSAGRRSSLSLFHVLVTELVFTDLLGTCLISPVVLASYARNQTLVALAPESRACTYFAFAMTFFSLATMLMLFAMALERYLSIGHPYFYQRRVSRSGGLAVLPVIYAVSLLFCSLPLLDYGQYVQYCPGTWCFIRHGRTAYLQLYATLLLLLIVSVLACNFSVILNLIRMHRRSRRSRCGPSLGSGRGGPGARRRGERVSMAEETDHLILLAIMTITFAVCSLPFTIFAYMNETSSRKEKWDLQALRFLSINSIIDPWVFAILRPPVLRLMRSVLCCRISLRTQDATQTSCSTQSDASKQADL

| SMILES | pEC50 | In vitro functional assay EP2 (h) % response [%] |
| --- | --- | --- |
| O=C(O)COc1ccc(F)c(NCc2cc(-c3ccc(F)c(F)c3)ccc2F)c1F [I(w), 2-[3-[[5-(3,4-difluorophenyl)-2-fluoro-phenyl]methylamino]-2,4-difluoro-phenoxy]acetic acid] | 7.85 | 40 |
| O=C(O)COc1cccc(NCc2cc(-c3cccc(F)c3)ccc2F)c1 [I(a), 2-[3-[[2-Fluoro-5-(3-fluorophenyl)phenyl]methylamino]phenoxy]acetic acid] | 6.96 | 74 |
| NC(=O)c1cc(CNc2c(F)ccc(OCC(=O)O)c2F)cc(-c2cccc(F)c2)c1 [I(z), 2-[3-[[3-carbamoyl-5-(3-fluorophenyl)phenyl]methylamino]-2,4-difluoro-phenoxy]acetic acid] | 8.40 | 53 |
| CC(Nc1c(F)ccc(OCC(=O)O)c1F)c1cc(-c2cccc(F)c2)ccc1F (racemic) [I(as), (R,S)-2-[2,4-difluoro-3-[1-[2-fluoro-5-(3-fluorophenyl)phenyl]ethylamino]phenoxy]acetic acid] | 7.96 | 107 |
| O=C(O)COc1ccc(F)c(NCc2cc(-c3cccc(F)c3)ccc2F)c1Cl [I(o), 2-[2-Chloro-4-fluoro-3-[[2-fluoro-5-(3-fluorophenyl)phenyl]methylamino]phenoxy]acetic acid] | 7.47 | 74 |
| Cc1cc(-c2cccc(F)c2)cc(CNc2c(F)ccc(OCC(=O)O)c2F)c1C [I(v), 2-[2,4-Difluoro-3-[[5-(3-fluorophenyl)-2,3-dimethyl-phenyl]methylamino]phenoxy]acetic acid] | 8.70 | 85 |
| Cc1cc(-c2ccccc2)cc(CNc2c(F)ccc(OCC(=O)O)c2F)c1C [I(au), 2-[3-[(2,3-dimethyl-5-phenyl-phenyl)methylamino]-2,4-difluoro-phenoxy]acetic acid] | 7.82 | 81 |
| COc1cc(CNc2c(C)ccc(OCC(=O)O)c2C)cc(-c2cccc(F)c2)c1 [I(ap), 2-[3-[[3-(3-fluorophenyl)-5-methoxy-phenyl]methylamino]-2,4-dimethyl-phenoxy]acetic acid] | 8.52 | 89 |
| COc1c(C)cc(-c2cccc(F)c2)cc1CNc1c(F)ccc(OCC(=O)O)c1F [I(t), 2-[2,4-Difluoro-3-[[5-(3-fluorophenyl)-2-methoxy-3-methyl-phenyl]methylamino]phenoxy]acetic acid] | 7.77 | 73 |
| Cc1cc(OCC(=O)O)c(F)c(NCc2cc(-c3cccc(F)c3)ccc2F)c1F [I(ab), 2-[2,4-difluoro-3-[[2-fluoro-5-(3-fluorophenyl)phenyl]methylamino]-5-methyl-phenoxy]acetic acid] | 7.30 | 105 |
| O=C(O)COc1ccc(F)c(NCc2cc(O)cc(-c3cccc(F)c3)c2)c1F [I(p), 2-[2,4-Difluoro-3-[[3-(3-fluorophenyl)-5-hydroxy-phenyl]methylamino]phenoxy]acetic acid] | 7.77 | 70 |
| O=C(O)COc1ccc(F)c(NCc2cc(O)cc(-c3cccc(F)c3)c2F)c1F [I(f), 2-[2,4-Difluoro-3-[[2-fluoro-3-(3-fluorophenyl)-5-hydroxy-phenyl]methylamino]phenoxy]acetic acid] | 6.80 | 61 |
| N#Cc1c(OCC(=O)O)ccc(F)c1NCc1cc(-c2cccc(F)c2)ccc1F [I(an), 2-[2-cyano-4-fluoro-3-[[2-fluoro-5-(3-fluorophenyl)phenyl]methylamino]phenoxy]acetic acid] | 8.05 | 91 |
| Cc1cc(CNc2c(F)ccc(OCC(=O)O)c2F)c(F)c(-c2cccc(F)c2)c1 [I(g), 2-[2,4-difluoro-3-[[2-fluoro-3-(3-fluorophenyl)-5-methyl-phenyl]methylamino]phenoxy]acetic acid] | 7.26 | 80 |
| N#Cc1cc(CNc2c(F)ccc(OCC(=O)O)c2F)cc(-c2cccc(F)c2)c1 [I(x), 2-[3-[[3-cyano-5-(3-fluorophenyl)phenyl]methylamino]-2,4-difluoro-phenoxy]acetic acid] | 7.57 | 45 |

Further lines, results first:

| pEC50 | In vitro functional assay EP2 (h) % response [%] | SMILES |
| --- | --- | --- |
| 8.70 | 31 | Cc1cc(-c2ccc(F)c(F)c2)cc(CNc2c(F)ccc(OCC(=O)O)c2F)c1C [I(aq), 2-[3-[[5-(3,4-difluorophenyl)-2,3-dimethyl-phenyl]methylamino]-2,4-difluoro-phenoxy]acetic acid] |
| 7.16 | 66 | Cc1ccc(-c2cccc(F)c2)cc1CNc1c(F)ccc(OCC(=O)O)c1F [I(c), 2-[2,4-Difluoro-3-[[5-(3-fluorophenyl)-2-methyl-phenyl]methylamino]phenoxy]acetic acid] |
| 9.00 | 76 | Cc1ccc(OCC(=O)O)c(C)c1NCc1cc(O)cc(-c2cccc(F)c2)c1 [I(ao), 2-[3-[[3-(3-fluorophenyl)-5-hydroxy-phenyl]methylamino]-2,4-dimethyl-phenoxy]acetic acid] |
| 7.77 | 72 | O=C(O)COc1ccc(F)c(NCc2c(F)ccc(-c3cccc(F)c3)c2F)c1F [I(s), 2-[3-[[2,6-Difluoro-3-(3-fluorophenyl)phenyl]methylamino]-2,4-difluoro-phenoxy]acetic acid] |
| 8.00 | 89 | Cc1c(OCC(=O)O)ccc(F)c1NCc1cc(-c2cccc(F)c2)ccc1F [I(m), 2-[4-Fluoro-3-[[2-fluoro-5-(3-fluorophenyl)phenyl]methylamino]-2-methyl-phenoxy]acetic acid] |
| 7.59 | 80 | Cc1ccc(OCC(=O)O)c(C)c1NCc1cc(-c2cccc(F)c2)ccc1F [I(j), 2-[3-[[2-Fluoro-5-(3-fluorophenyl)phenyl]methylamino]-2,4-dimethyl-phenoxy]acetic acid] |
| 6.80 | 65 | O=C(O)COc1ccc(F)c(NCc2cccc(-c3cccc(F)c3)c2)c1F [I(e), 2-[2,4-Difluoro-3-[[3-(3-fluorophenyl)phenyl]methylamino]phenoxy]acetic acid] |
| 7.55 | 82 | O=C(O)COc1ccc(F)c(NCc2cc(-c3cccc(F)c3)ccc2F)c1F [I(b), 2-[2,4-Difluoro-3-[[2-fluoro-5-(3-fluorophenyl)phenyl]methylamino]phenoxy]acetic acid] |
| 8.52 | 83 | Cc1cc(CNc2c(F)ccc(OCC(=O)O)c2C)cc(-c2cccc(F)c2)c1 [I(ae), 2-[4-fluoro-3-[[3-(3-fluorophenyl)-5-methyl-phenyl]methylamino]-2-methyl-phenoxy]acetic acid] |
| 7.62 | 76 | O=C(O)COc1ccc(F)c(NCc2cc(-c3cccc(F)c3)ccc2Cl)c1F [I(l), 2-[3-[[2-Chloro-5-(3-fluorophenyl)phenyl]methylamino]-2,4-difluoro-phenoxy]acetic acid] |
| 8.30 | 97 | Cc1c(F)cc(-c2cccc(F)c2)cc1CNc1c(F)ccc(OCC(=O)O)c1C [I(av), 2-[4-fluoro-3-[[3-fluoro-5-(3-fluorophenyl)-2-methyl-phenyl]methylamino]-2-methyl-phenoxy]acetic acid] |
| 7.00 | 73 | Cc1ccc(OCC(=O)O)c(F)c1NCc1cc(-c2cccc(F)c2)ccc1F [I(i), 2-[2-Fluoro-3-[[2-fluoro-5-(3-fluorophenyl)phenyl]methylamino]-4-methyl-phenoxy]acetic acid] |
| 7.74 | 124 | C[C@@H](Nc1c(F)ccc(OCC(=O)O)c1F)c1cc(-c2cccc(F)c2)ccc1F (single isomer, unassigned) [I(as) (+ isomer)] |
| 7.89 | 88 | Cc1cc(-c2cccc(F)c2)cc(CNc2c(F)ccc(OCC(=O)O)c2F)c1F [I(h), 2-[2,4-difluoro-3-[[2-fluoro-5-(3-fluorophenyl)-3-methyl-phenyl]methylamino]phenoxy]acetic acid] |
| 8.15 | 79 | Cc1cc(CNc2c(C)ccc(OCC(=O)O)c2C)cc(-c2cccc(F)c2)c1 [I(aj), 2-[3-[[3-(3-fluorophenyl)-5-methyl-phenyl]methylamino]-2,4-dimethyl-phenoxy]acetic acid] |
